Assays:
Type in all cases: biochemical
[1] = biological target: T1, calpain-I isolated from human erythrocytes (Homo sapiens, UniProt P07384); test: Calpain I enzyme inhibition, kinetic fluorescence assay; settings: apparent Ki from IC50 by Cheng-Prussoff; pH 7.3, room temperature
T1 construct: calpain-I—isolated from human erythrocytes; purchased Calbiochem 208713; host or cells: human erythrocytes (native tissue isolate)
T1 sequence (P07384 1-714): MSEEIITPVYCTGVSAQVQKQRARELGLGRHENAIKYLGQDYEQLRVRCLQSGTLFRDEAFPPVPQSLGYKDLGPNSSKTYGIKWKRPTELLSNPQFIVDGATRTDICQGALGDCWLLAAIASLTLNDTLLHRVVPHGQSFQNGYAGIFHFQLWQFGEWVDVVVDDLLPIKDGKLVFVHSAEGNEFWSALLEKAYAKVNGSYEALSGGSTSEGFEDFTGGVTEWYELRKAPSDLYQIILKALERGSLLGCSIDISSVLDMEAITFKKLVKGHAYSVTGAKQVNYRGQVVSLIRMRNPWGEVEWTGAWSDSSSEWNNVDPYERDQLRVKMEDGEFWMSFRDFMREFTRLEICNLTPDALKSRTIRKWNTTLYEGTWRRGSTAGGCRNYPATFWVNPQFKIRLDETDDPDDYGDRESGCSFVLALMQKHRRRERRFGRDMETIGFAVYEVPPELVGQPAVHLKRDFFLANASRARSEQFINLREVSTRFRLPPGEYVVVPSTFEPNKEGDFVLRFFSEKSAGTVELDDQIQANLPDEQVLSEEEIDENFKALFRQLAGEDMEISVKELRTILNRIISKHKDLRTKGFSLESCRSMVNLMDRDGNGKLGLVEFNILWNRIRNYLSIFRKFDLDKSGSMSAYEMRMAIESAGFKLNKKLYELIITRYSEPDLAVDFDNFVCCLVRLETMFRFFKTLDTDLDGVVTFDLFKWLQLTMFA
T1 sequence (P04632 1-268 partner): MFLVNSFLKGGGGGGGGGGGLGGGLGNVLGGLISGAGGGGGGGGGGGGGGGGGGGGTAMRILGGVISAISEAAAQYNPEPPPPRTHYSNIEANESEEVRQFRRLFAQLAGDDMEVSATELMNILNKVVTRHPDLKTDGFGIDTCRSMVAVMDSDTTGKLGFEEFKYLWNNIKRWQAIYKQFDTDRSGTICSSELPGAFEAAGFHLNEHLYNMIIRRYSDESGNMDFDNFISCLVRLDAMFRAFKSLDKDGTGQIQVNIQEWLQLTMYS
Experimental: The following solutions and buffers were employed: • HBS (for 40 ml): 800 μl 1M HEPES; 2.16 ml 100 mM KCl; 4.8 ml 1M NaCl; 3.59 ml 5% glucose; 60 μl 1M MgSO4; 400 μl 100 mM Na pyruvate, 28.19 ml water; pH 7.2-7.5. • lysis buffer (for 20 ml): 400 μl 1M Tris pH 8.2; 2.74 ml 1M NaCl; 520 μl 0.5M EDTA; 2 ml 10% triton X-100; 0.8 ml (=1:25) CompletePlus (1 tablet/2 ml H2O); 200 μl 100 mM Pefabloc; 13.34 ml water, pH 8.2. • TBST (10×) (for 1I): 100 mM Tris (12.1 g); 1.5M NaCl (87 g); 1% Tween 20 (10 g), adjusted to pH 8. I. Enzyme Inhibition In Vitro: • Testing for blockade of the corresponding enzymic activities was carried out by means of kinetic fluorescence assays (excitation 390 nm, emission 460 nm). • Apparent Ki values were calculated from the experimentally determined IC50 values by the Cheng-Prussoff relation assuming a reversible competitive enzyme inhibition. The Km values of the substrates used under the assay conditions indicated above were: 90 μM (Z-Phe-Arg-AMC, cathepsin B), 10 μM (Z-Gly-Pro-Arg-AMC, cathepsin K), 2 μM (Z-Phe-Arg-AMC, cathepsin L), and 30 μM (Z-Val-Val-Arg-AMC, cathepsin S). • The indicated Ki values are averages of the inhibition constants calculated on the basis of 2 to 4 independent dose-effect plots. • The following assays were used: • 1. Calpain I: • 20 nM calpain-I—isolated from human erythrocytes (Calbiochem #208713), 100 μM Suc-Leu-Tyr-AMC (Bachem #I-1355) as substrate in buffer with 62 mM imidazole, 0.3 mM CaCl2, 0.10% CHAPS, 0.05% BSA, 1 mM DTT at pH 7.3 and room temperature. • 2. Cathepsin B: • 0.25 nM cathepsin B—isolated from human liver (Calbiochem #219362), 100 μM Z-Phe-Arg-AMC (Bachem #I-1160) as substrate 50 mM MES, 2 mM EDTA, 0.05% Brij 35, 2.5 mM L-cysteine, pH 6.0, room temperature. • 3. Cathepsin K: • 3 nM cathepsin K—activated from recombinant human procathepsin K from E. coli (Calbiochem #342001), 10 μM Z-Gly-Pro-Arg-AMC (Biomol #P-142) as substrate in 50 mM MES, 2 mM EDTA, 0.05% Brij 35, 2.5 mM L-cysteine, pH 6.0, room temperature. • 4. Cathepsin L: • 1 nM cathepsin L—isolated from human liver (Calbiochem #219402), 2 μM Z-Phe-Arg-AMC (Bachem #I-1160) as substrate in 50 mM MES, 2 mM EDTA, 0.05% Brij 35, 2.5 mM L-cysteine, pH 6.0, room temperature. • 5. Cathepsin S: • 0.5 nM recombinant human cathepsin S from E. coli (Calbiochem #219343), 20 μM Z-Val-Val-Arg-AMC (Bachem #I-1540) as substrate in 50 mM MES, 2 mM EDTA, 0.05% Brij 35, 2.5 mM L-cysteine, pH 6.0, room temperature. • The results of the in vitro determination are indicated in Table 2. The following abbreviations are used in Table 2: • The “Calpain activity” column, ++ stands for a calpain Ki (Ki(calpain)) of ≦40 nM, + means: 40 nM<Ki(Calpain)≦100 nM, 0 means 100 nM<Ki(Calpain)≦1 μM, − means 1 μM<Ki(Calpain)≦10 μM, −− means Ki(Calpain)>10 μM. • The “Sel. cat. B” column indicates the Ki(cathepsin B)/Ki(calpain) ratio. In this connection, ++ means a Ki(cathepsin B)/Ki(calpain) ratio of ≧30 and + means≦10≦Ki(cathepsin B)/Ki(calpain)<30. • The “Sel. cat. K” column indicates the Ki(cathepsin K)/Ki(calpain) ratio. In this connection, ++ means a Ki(cathepsin K)/Ki(calpain) ratio of ≧30 and + means 10≦Ki(cathepsin K)/Ki(calpain)<30. • The “Sel. cat. L” column indicates the Ki(cathepsin L)/Ki(calpain) ratio. In this connection, ++ means a Ki(cathepsin L)/Ki(calpain) ratio of ≧50 and + means 30≦Ki(cathepsin L)/Ki(calpain)<50. • The “Sel. cat. S” column indicates the Ki(cathepsin S)/Ki(calpain) ratio. […]

[2] = biological target: T2, cathepsin B isolated from human liver (Homo sapiens, UniProt P07858); test: Cathepsin B enzyme inhibition, kinetic fluorescence assay; settings: selectivity ratio
T2 construct: cathepsin B—isolated from human liver; purchased Calbiochem 219362; host or cells: human liver (native tissue isolate)
Experimental: (§1) The following solutions and buffers were employed: • HBS (for 40 ml): 800 μl 1M HEPES; 2.16 ml 100 mM KCl; 4.8 ml 1M NaCl; 3.59 ml 5% glucose; 60 μl 1M MgSO4; 400 μl 100 mM Na pyruvate, 28.19 ml water; pH 7.2-7.5. • lysis buffer (for 20 ml): 400 μl 1M Tris pH 8.2; 2.74 ml 1M NaCl; 520 μl 0.5M EDTA; 2 ml 10% triton X-100; 0.8 ml (=1:25) CompletePlus (1 tablet/2 ml H2O); 200 μl 100 mM Pefabloc; 13.34 ml water, pH 8.2. • TBST (10×) (for 1I): 100 mM Tris (12.1 g); 1.5M NaCl (87 g); 1% Tween 20 (10 g), adjusted to pH 8. I. Enzyme Inhibition In Vitro: • Testing for blockade of the corresponding enzymic activities was carried out by means of kinetic fluorescence assays (excitation 390 nm, emission 460 nm). • Apparent Ki values were calculated from the experimentally determined IC50 values by the Cheng-Prussoff relation assuming a reversible competitive enzyme inhibition. The Km values of the substrates used under the assay conditions indicated above were: 90 μM (Z-Phe-Arg-AMC, cathepsin B), 10 μM (Z-Gly-Pro-Arg-AMC, cathepsin K), 2 μM (Z-Phe-Arg-AMC, cathepsin L), and 30 μM (Z-Val-Val-Arg-AMC, cathepsin S). • The indicated Ki values are averages of the inhibition constants calculated on the basis of 2 to 4 independent dose-effect plots. • The following assays were used: • 1. Calpain I: • 20 nM calpain-I—isolated from human erythrocytes (Calbiochem #208713), 100 μM Suc-Leu-Tyr-AMC (Bachem #I-1355) as substrate in buffer with 62 mM imidazole, 0.3 mM CaCl2, 0.10% CHAPS, 0.05% BSA, 1 mM DTT at pH 7.3 and room temperature. • 2. Cathepsin B: • 0.25 nM cathepsin B—isolated from human liver (Calbiochem #219362), 100 μM Z-Phe-Arg-AMC (Bachem #I-1160) as substrate 50 mM MES, 2 mM EDTA, 0.05% Brij 35, 2.5 mM L-cysteine, pH 6.0, room temperature. • 3. Cathepsin K: • 3 nM cathepsin K—activated from recombinant human procathepsin K from E. coli (Calbiochem #342001), 10 μM Z-Gly-Pro-Arg-AMC (Biomol #P-142) as substrate in 50 mM MES, 2 mM EDTA, 0.05% Brij 35, 2.5 mM L-cysteine, pH 6.0, room temperature. • 4. […]

[3] = biological target: T3, cathepsin K activated from recombinant human procathepsin K (Homo sapiens, UniProt P43235); test: Cathepsin K enzyme inhibition, kinetic fluorescence assay; settings: selectivity ratio
T3 construct: purchased Calbiochem 342001; host or cells: E. coli
T3 sequence (P43235 115-329): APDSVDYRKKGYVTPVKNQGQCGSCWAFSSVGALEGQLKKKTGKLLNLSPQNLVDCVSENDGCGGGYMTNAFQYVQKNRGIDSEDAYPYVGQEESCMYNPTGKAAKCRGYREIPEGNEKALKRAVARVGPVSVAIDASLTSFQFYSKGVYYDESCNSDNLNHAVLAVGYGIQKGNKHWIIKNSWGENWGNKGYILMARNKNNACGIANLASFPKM
Experimental: as §1

[4] = biological target: T4, cathepsin L isolated from human liver (Homo sapiens, UniProt P07711); test: Cathepsin L enzyme inhibition, kinetic fluorescence assay; settings: selectivity ratio
T4 construct: cathepsin L—isolated from human liver; purchased Calbiochem 219402; host or cells: human liver (native tissue isolate)
Experimental: as §1

[5] = biological target: T5, recombinant human cathepsin S (Homo sapiens, UniProt P25774); test: Cathepsin S enzyme inhibition, kinetic fluorescence assay; settings: selectivity ratio
T5 construct: purchased Calbiochem 219343; host or cells: E. coli
Experimental: as §1

T5 sequence (P25774 115-331): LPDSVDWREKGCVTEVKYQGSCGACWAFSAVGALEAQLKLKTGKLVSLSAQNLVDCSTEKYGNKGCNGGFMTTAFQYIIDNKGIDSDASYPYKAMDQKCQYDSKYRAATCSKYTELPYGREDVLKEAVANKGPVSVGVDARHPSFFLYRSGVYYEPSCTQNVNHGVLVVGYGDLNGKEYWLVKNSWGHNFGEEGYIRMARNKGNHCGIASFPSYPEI
T4 sequence (P07711 114-333): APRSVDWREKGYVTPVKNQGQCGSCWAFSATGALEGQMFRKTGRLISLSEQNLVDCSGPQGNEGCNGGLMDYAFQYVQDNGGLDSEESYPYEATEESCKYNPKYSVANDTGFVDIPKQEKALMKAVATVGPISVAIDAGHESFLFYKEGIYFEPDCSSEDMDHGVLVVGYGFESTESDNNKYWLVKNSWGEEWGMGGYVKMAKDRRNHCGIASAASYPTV

| Ki [1] [nM] | SMILES | Sel cat. B: Ki(cathepsin B)/Ki(calpain) ratio [2] | Sel cat. K: Ki(cathepsin K)/Ki(calpain) ratio [3] | Sel cat. L: Ki(cathepsin L)/Ki(calpain) ratio [4] | Sel cat. S: Ki(cathepsin S)/Ki(calpain) ratio [5] |
| --- | --- | --- | --- | --- | --- |
| > 10000 | NC(=O)C1(C(Cc2ccc(F)cc2)NC(=O)c2cccnc2-n2ccc(-c3ccc(Cl)cc3Cl)n2)OCCO1 (stereo not shown) [Compound I-1, N-[1-[2-(Aminocarbonyl)-1,3-dioxolan-2-yl]-2-(4-fluorophenyl)ethyl]-2-[3-(2,4-dichlorophenyl)-1H-pyrazol-1-yl]nicotinamide] | – | – | – | – |
| ≤ 40 | NC(=O)C(=O)C(Cc1ccccc1)NC(=O)c1cccnc1-n1ccc(-c2cccc(C(F)(F)F)c2)n1 (stereo not shown) [Compound II-2, N-(3-Amino-1-benzyl-2,3-dioxopropyl)-2-{3-[3-(trifluoromethyl)phenyl]-1H-pyrazol-1-yl}nicotinamide] | + (+ means≦10≦Ki(cathepsin B)/Ki(calpain)<30) | ++ (++ means a Ki(cathepsin K)/Ki(calpain) ratio of ≧30) | ++ (++ means a Ki(cathepsin L)/Ki(calpain) ratio of ≧50) | ++ (++ means a Ki(cathepsin S)/Ki(calpain) ratio of ≧100) |
| 40 to 100 | NC(=O)C(=O)C(Cc1ccc(F)cc1)NC(=O)c1cccnc1-n1ccc(-c2ccc(Cl)cc2Cl)n1 (stereo not shown) [II-1, N-[3-amino-1-(4-fluorobenzyl)-2,3-dioxopropyl]-2-[3-(2,4-dichlorophenyl)-1H-pyrazol-1-yl]nicotinamide] | ++ (++ means a Ki(cathepsin B)/Ki(calpain) ratio of ≧30) | ++ (++ means a Ki(cathepsin K)/Ki(calpain) ratio of ≧30) | ++ (++ means a Ki(cathepsin L)/Ki(calpain) ratio of ≧50) | ++ (++ means a Ki(cathepsin S)/Ki(calpain) ratio of ≧100) |
| 40 to 100 | NC(=O)C(=O)C(Cc1ccccc1)NC(=O)c1cccnc1-n1ccc(-c2ccc(F)cc2)n1 (stereo not shown) [II-3, N-(3-amino-1-benzyl-2,3-dioxopropyl)-2-[3-(4-fluorophenyl)-1H-pyrazol-1-yl]nicotinamide] | + (+ means≦10≦Ki(cathepsin B)/Ki(calpain)<30) | + (+ means 10≦Ki(cathepsin K)/Ki(calpain)<30) | ++ (++ means a Ki(cathepsin L)/Ki(calpain) ratio of ≧50) | ++ (++ means a Ki(cathepsin S)/Ki(calpain) ratio of ≧100) |

Reference: patent US9150553B2, “Carboxamide compounds and their use as calpain inhibitors” (AbbVie Deutschland GmbH & Co. KG, priority 2007, dated 2015)
